Results on twelve molecules are retold here after article PMC8830292, “Anti-Toxoplasma gondii effect of lupane-type triterpenes from the bark of black alder (Alnus glutinosa) and identification of a potential target by reverse docking” (Parasite, 2022).

Data set [1] relates to T. gondii. Set-up: method as in PMID 20441162. The settings on record: cited from earlier work.
Data set [2] deals with Vero cells. Set-up: method as in PMID 20441162. The settings on record: cited from earlier work.
Data set [3] deals with Toxoplasma gondii tachyzoites (strain RH, type I). Kind of data set: Screening at 10 μM: T. gondii parasite growth inhibition in Vero cells (enzyme immunoassay). It is filed as cell-based. The settings on record: for inhibition at 10 µM / parasite growth inhibition: 72 h, triplicate, 10 μM. As to the method:
(§1) All the experiments were performed in triplicate. Compound screening was performed at 10 μM in 96-well plates. Thus, 20,000 Vero cells contained in 200 μL of culture medium were filled in each well and left to adhere for 4 h at 37 °C and 5% of CO2. Then, 50,000 parasites contained in 50 μL of culture medium were filled, followed by 3 h of incubation in the same conditions. Wells were then emptied and 100 μL of solutions containing each drug at a final concentration of 10 μM were added. Incubation continued for 72 h.
(§2) The IC50 assays were processed in the same conditions as previously described. Dilutions were performed in a culture medium. The IC50 was determined using an adapted protocol from Doliwa et al.. Parasites and cells were first fixed with 100 μL of cold methanol for 5 min at −20 °C. Cells were then rehydrated with 100 μL of PBS at room temperature. Wells were then emptied and filled with 60 μL of a solution of anti-T. gondii rabbit antibody (Ref. 9070-0556, Biorad) diluted at 1/1000. After 1 hour of incubation at 37 °C, wells were washed three times with PBS, and 60 μL of anti-rabbit IgG horseradish conjugated goat antibody (Ref. 170-6515, Bio-Rad) at 1/1000 were added, followed by 1 h of incubation at 37 °C. The wells were washed three more times, and 200 μL of a solution of o-phenylenediamine dihydrochloride (Sigma, France) was added. After 15 min at room temperature, the enzymatic reaction was stopped by the addition of 50 μL of hydrochloric acid (HCl) 3 M. To finish, 200 μL of each well were transferred to a new well and a spectrophotometer reading was performed at 492 nm, corrected at 630 nm. Each experiment was performed with three controls: control with host cells alone, control with host cells and parasites without the drug for parasite multiplication, and control with host cells with parasites and pyrimethamine at 1 μM.

For data set [4] the test system is unchanged. Kind of data set: Half maximal inhibitory concentration (IC50) on T. gondii (enzyme immunoassay). Conditions: for Selectivity index (SI): SI = CC50/IC50 (Vero cells / T. gondii); for IC50: Toxoplasma gondii, T. gondii RH in Vero cells, 72 h. It is filed as cell-based. As to the method: as §1, §2
Data set [5] can be described thus: Cytotoxicity evaluation, Uptiblue viable cell-counting assay. The settings on record: African green monkey. The protocol: (§3) Vero cells (host cells of T. gondii tachyzoite) were purchased at ATCC (reference CCL-81), grown in Iscove Modified Dulbecco Media (IMDM) GlutaMAX medium (Gibco) supplemented with 5% decomplemented fetal calf serum with 1% penicillin/streptomycin. The culture was incubated at 37 °C and 5% CO2. Toxoplasma gondii tachyzoites (strain RH, type I) were grown in the same conditions as Vero cells except that the concentration of fetal calf serum was 2%.
(§4) The in vitro cytotoxicity was evaluated on Vero cell cultures using Uptiblue® viable cell-counting assay (Interchim, Montluçon, France). CC50 assays were performed in 96-well plates containing 20,000 Vero cells and 200 μL of culture medium identical to the one used for Vero cell maintenance. After 4 h of incubation, wells were emptied. The IC50 was performed with 100 μL of solutions containing the tested compounds with a final concentration range of 0–80 μM. After 72 h of incubation, wells were washed with 100 μL of phosphate-buffered saline (PBS) (Sigma-Aldrich, Saint-Quentin-Fallavier, France). Then, 100 μL of IMDM culture medium supplemented with 2% (v/v) of calf fetal serum and 10% (v/v) of Uptiblue® were added to each well. Plates were placed at 37 °C and 5% of CO2 for 3 h. Spectrophotometric measures were performed at 570 nm and corrected at 600 nm on an AMR-100 spectrophotometer (AllSheng, Hangzhou, China).

For data set [6], the system named is L. donovani. The arrangement: method as in earlier work. The settings on record: 50 μM; cited from earlier work.
In data set [7] the test system is Vero cells. The settings on record: cited from earlier work.
The test system of data set [8] is Vero cells. Kind of data set: Cytotoxicity evaluation, Uptiblue viable cell-counting assay. The protocol:
as §3, §4

Data set [9] has as its system T. gondii. The arrangement: method as in PMID 23776166. Conditions: in vitro growth of T. gondii; cited from earlier work.
Data set [10] deals with P. falciparum. Set-up: method as in PMID 11239932. Conditions: P. falciparum growth; cited from earlier work.
The nature of data set [11]: Solubility in DMSO. It is filed as physicochemical. As to the method: Stock solutions at 1 mg/mL were prepared in cell culture grade dimethyl sulfoxide (DMSO, PanReac AppliChem, Darmstadt, Germany). Subsequent dilutions were made in a culture medium identical to the one used for tachyzoite maintenance.
For data set [12], the system named is Plasmodium falciparum K1 strain. Set-up: method as in PMID 21438586. The settings on record: cited from earlier work.

As for `CC1(C)CC[C@]2(C(=O)O)CC[C@]3(C)C(=CC[C@@H]4[C@@]5(C)C[C@@H](O)[C@H](O)C(C)(C)[C@@H]5CC[C@]43C)[C@@H]2C1` [maslinic acid], the LD50 in data set [1] is 53.8 µM; in [2], 236.6 µM.
As a reminder, the inhibition is the drop in the measured response relative to a control, in per cent. In general, IC50 refers to the concentration that inhibits the measured activity by half. In data set [3] (Toxoplasma gondii, Vero), `C=C(C)[C@@H]1CC[C@]2(CO)CC[C@]3(C)[C@H](CC[C@@H]4[C@@]5(C)CC[C@H](O)C(C)(C)[C@@H]5CC[C@]43C)[C@@H]12` [Betulin (1), betulin] returned an inhibition at 10 µM of 44%. In [4], the “Selectivity index (SI)” value is reported as more than 6.0 and the IC50 came to 13.3 ± 7.3 µM. The same molecule returned a CC50 at 72 h in [5] of more than 80 µM. Besides, the “inhibition of L. donovani” value in [6] is recorded as 35.0%. The CC50 in data set [7] was 164 µM.
For `C=C(C)C1CCC2(C(=O)O)CCC3(C)C(CCC4C5(C)CCC(=O)C(C)(C)C5CCC43C)C12` (stereo not drawn) [Betulonic acid (7), Betulonic acid], in data set [4], the “Selectivity index (SI)” value is on record as more than 18.6 and 4.3 ± 1.4 µM corresponded to half-maximal inhibition (IC50). For the same molecule, in [5] (Vero cells (ATCC CCL-81)), the CC50 at 72 h was more than 80 µM. In data set [8] (80 μM on Vero cells), the cytotoxicity result is on record as “without cytotoxicity”. In [6], the “inhibition of L. donovani” value was 97.6%.
On to β-sitostenone [β-sitostenone (9)], for which the parasite growth inhibition entry in [3] is given as “did not show any relevant activity”; in [3] (listed as β-sitostenone), “no specific activity”.
Take `Oc1cc(Cl)ccc1Oc1ccc(Cl)cc1Cl` [triclosan]: the IC50 in data set [9] is 3 µM; in data set [10], 1 µM.
`C=C(C)[C@@H]1CC[C@]2(C)CC[C@]3(C)[C@H](CC[C@@H]4[C@@]5(C)CCC(=O)C(C)(C)[C@@H]5CC[C@]43C)[C@@H]12` [Lupenone, lupenone]: the “solubility in DMSO” value in [11] was “not soluble in DMSO”.
Molecule `CCc1nc(N)nc(N)c1-c1ccc(Cl)cc1` [Pyrimethamine (10), pyrimethamine, reference compound] gave an inhibition at 1 µM in data set [3] (Toxoplasma gondii, Vero, 1 μM) of 78%. Moreover, in data set [4], the “Selectivity index (SI)” value came out at 38.0 and the IC50 was 0.7 ± 0.2 µM. In addition, in data set [5] (Vero cells (ATCC CCL-81)), the CC50 at 72 h came out at 27.7 µM. Also, in data set [8] (10 μM), the cytotoxicity entry is “cytotoxic”.
For `C=C(C)C1CCC2(C(=O)OC)CCC3(C)C(CCC4C5(C)CCC(=O)C(C)(C)C5CCC43C)C12` (stereo not drawn) [Betulonic acid methyl ester (8), betulonic acid methyl ester], in data set [4], the “Selectivity index (SI)” value was more than 25.8 and the IC50 was 3.1 ± 0.4 µM. Also, the CC50 at 72 h in data set [5] was more than 80 µM.
`C=C(C)[C@@H]1CC[C@]2(C)CC[C@]3(C)[C@H](CC[C@@H]4[C@@]5(C)CC[C@H](O)C(C)(C)[C@@H]5CC[C@]43C)[C@@H]12` [Lupeol (5), lupeol]: in data set [3] (Toxoplasma gondii, Vero), the inhibition at 10 µM came to 60%. In data set [4], the “Selectivity index (SI)” value is more than 5.8 and the IC50 was 13.8 ± 4 µM. Besides, the CC50 at 72 h in data set [5] (Vero cells (ATCC CCL-81)) is more than 80 µM.
The like results for `C=C(C)[C@@H]1CC[C@]2(C=O)CC[C@]3(C)[C@H](CC[C@@H]4[C@@]5(C)CC[C@H](O)C(C)(C)[C@@H]5CC[C@]43C)[C@@H]12` [Betulinaldehyde (2), betulinaldehyde] were, in that order, 93%, more than 15.7, 5.1 ± 0.6 µM and more than 80 µM.
The molecule `C=C(C)[C@@H]1CC[C@]2(C(=O)O)CC[C@]3(C)[C@H](CC[C@@H]4[C@@]5(C)CC[C@H](O)C(C)(C)[C@@H]5CC[C@]43C)[C@@H]12` [Betulinic acid (3), betulinic acid] came in with an inhibition at 10 µM in data set [3] (Toxoplasma gondii, Vero) of 49%. For the same molecule, in data set [4], the “Selectivity index (SI)” value was more than 9.6 and the IC50 amounted to 8.3 ± 2.7 µM. For the same molecule, the CC50 at 72 h in data set [5] was more than 80 µM. For the same molecule, in [6], the “inhibition of L. donovani” value was 39.8%.
`C=C(C)[C@@H]1CC[C@]2(CO)CC[C@]3(C)[C@H](CC[C@@H]4[C@@]5(C)CCC(=O)C(C)(C)[C@@H]5CC[C@]43C)[C@@H]12` [Betulone (4), betulone]: the inhibition at 10 µM in data set [3] (Toxoplasma gondii, Vero) is 99%. Moreover, the entries for the “Selectivity index (SI)” value in data set [4] and in data set [4] (listed as betulone) were more than 29.6 and “greater than 29”, respectively. Also, the IC50 in [4] was 2.7 ± 1.2 µM; in [12] it was 3 µM. In [5], this molecule yielded a CC50 at 72 h of more than 80 µM.
